Results as given in US8420307B2, “Sperm cryoprotective media” (The Jackson Laboratory, priority 2006, dated 2013).
“Also recorded” adds a separate entry of the source.

Tested on: cryopreserved mouse sperm
Assay: In vitro fertilization with thawed cryopreserved sperm: fertilization rate (#2-cell embryos/# total oocytes)
Assay type: cell-based
Settings: for effect on fertilization rate / fertility of cryopreserved C57BL/6J sperm: MTG 159 μM to 636 μM in CPM, relative to presently-available methods, FIG. 1
Procedure: The epididymides and vas deferentia are extracted from the C57BL/6J male and placed into the cryoprotective media described herein. […] Incisions are made in the tissues, allowing the sperm to swim out into the CPM; this is allowed for at least 5 but for less than 20 min. The residual tissues are then removed from the collection drop. Ten micro liters of the sperm sample are loaded into as many as one hundred 250 μL French straws (IMV; Maple Grove, Minn.). Two hundred and fifty microliter straws, containing a 5.5 cm column of CPM, a 2.5 cm column of air, a 0.6 cm column of sperm sample followed by a column of air, are sealed with an instantaneous heat sealer. The straws are loaded into cassettes and exposed to liquid nitrogen vapor for at least 10 min before being plunged into the liquid nitrogen. This essentially cools the sperm at 37° C./min.
Subsequent to storage in liquid nitrogen, 3 samples from each treatment are thawed in a 37° C. water bath for 30 sec, and then each 10 μL aliquot is placed directly into its own 500 μL in vitro fertilization (IVF) drop of Cooks Mouse Vitro Fert (Cook Australia; Queensland, Australia). After an hour of incubation, 4 cumulus intact oocyte clutches from superovulated C57BL/6J females are added to the in vitro fertilization drops. IVF is carried out using methods known to those of skill in the art, such as by the methods described by Nakagata. (Nakagata, 2000a; Nakagata, 2000b). The sperm and oocytes are incubated together for 4 hrs before the presumptive zygotes are removed from the IVF drop and placed in a culture drop for overnight incubation.
Approximately 18 hours later, the percentage of oocytes developing into 2-cell embryos is determined (#2-cell embryos/# total oocytes). For statistical analysis, percents are arcsine transformed and the averages of at least 3 IVF drops per treatment are evaluated with a T-Test. A difference between treatments is illustrated with an asterisk (p<0.05). For presentation, means and standard errors were converted back into percents. […]
Ten μL aliquots of sperm from a variety of mouse strains as listed in Table 7 are frozen in the CPM with 477 μM monothioglycerol as ROS(CPM). A total of at least 6 sperm samples per treatment within a strain are utilized. These represented at least 3 samples from each of at least 2 sets of 2 males whose sperm are pooled at the time of collection and then split into the two treatments. Subsequent to thawing the samples are placed directly into their own 500 μL in vitro fertilization (IVF) drop of Cooks Mouse Vitro Fert (Cook Australia; Queensland, Australia; (Quinn et al., 1995)). After an hour incubation, 4 cumulus intact oocyte clutches from isogenic strains were added to the incubation medium. Following a 4 hr co-incubation, the presumptive zygotes were washed and cultured overnight. Approximately 18 hours later, the fertilization rate was determined (% 2 cell: #2-cell embryos/# total oocytes, see Table 7). The average percentage was determined. For each line, about 30 2-cell embryos were implanted into receptive females. After approximately 21 days, the number of live born mice was determined, shown as % Live born in Table 7.
To determine if storage of the cryoprotective media at −80° C. altered the activity of the C57BL/6J mouse sperm., in vitro fertilizations (IVF) were preformed as described previously (see Example 1, also see publications by Nakagata, 2000a; Nakagata, 2000b, Sztein et al. 2000; Byers et al. 2006). Briefly the sperm and oocytes, both from C57BL/6J mice, were incubated together for 4 hrs in a benchtop incubator at 37° C. After 4 hrs of co-incubation the presumptive zygotes were washed through two 150 μL drops of IVF media (MVF; Cook's; Spencer, Ind.) and then cultured overnight. Approximately 18 hrs later, the proportion of oocytes fertilized was calculated by dividing the number of two-cell embryos by the sum of two-cells and normally appearing presumptive one-cell oocytes. […]

[1] = C57BL/6 sperm cryopreserved in CPM containing 1 mM free radical scavenger
[2] = C57BL/6 sperm cryopreserved in CPM containing 5 mM free radical scavenger

Compound	Fertilization Rate (2-cell embryos of total oocytes) (C57BL/6 sperm cryopreserved in CPM containing 0.5 mM free radical scavenger) [%]	Fertilization Rate (2-cell embryos of total oocytes) [1] [%]	Fertilization Rate (2-cell embryos of total oocytes) [2] [%]	Fertilization Rate (2-cell embryos of total oocytes) (C57BL/6 sperm cryopreserved in CPM containing 50 mM free radical scavenger) [%]	effect on fertilization rates / fertility of cryopreserved C57BL/6J sperm (GSH 500 μM to 5 mM in CPM, compared to CPM without a reducing agent, FIG. 2)	Fertilization Rate (2-cell embryos of total oocytes) (C57BL/6 sperm cryopreserved in CPM containing 0.1 mM free radical scavenger) [%]	Fertilization Rate (2-cell embryos of total oocytes) (C57BL/6 sperm cryopreserved in CPM containing 20 mM free radical scavenger) [%]	MTG concentration that provided the best results (fertilization rate) (C57BL/6J sperm, MTG tested from 159 μM to 636 μM) [µM]	Fertilization Rate (2-cell embryos of total oocytes) (C57BL/6 sperm cryopreserved in CPM containing 0.477 mM free radical scavenger) [%]	effect on fertilization rate / fertility of cryopreserved C57BL/6J sperm	effect on fertilization rate / fertility of cryopreserved C57BL/6J sperm (listed as monothioglycerol)
N[C@@H](CCC(=O)N[C@@H](CS)C(=O)NCC(=O)O)C(=O)O [GSH, reduced glutathione]	59.7	49.5	39.9	0.0	increase the fertilization rates; also recorded: enhances the fertility	–	–	–	–	–	–
O[C@H](CS)[C@H](O)CS (racemic) [DTT, dithiothreitol]	–	2	0.9	–	–	19.2	6.4	–	–	–	–
OCC(O)CS (stereo not shown) [MTG, monothioglycerol]	–	–	–	–	–	–	–	477	75.2	improved fertilization rate	enhances the fertility
